In patent US20140171490A1, “Method and Device for Ophthalmic Administration of Active Pharmaceutical Ingredients” (PHARMALIGHT INC., priority 2005, published 2014):
Where two headings read alike, the source gives them in different places.

Columns and labels:
eye = details: cited from earlier work
[1] = parameters: species or system Lewis female rats; details: rat, in vivo
Description: Animal studies were carried out on Lewis female rats (6-8 weeks of age) from Harlan Laboratories Inc. (Rehovot, Israel). In some cases as noted below, the rats were anesthetized with ketamin/xylazine […].
ELISA tests were performed using commercially available ELISA kits from Assay Designs (Ann Arbor, Mich., USA) in accordance with the manufacturer's instructions in the usual way in conjunction with a BioTek EL-310 plate reader (Cambridge Scientific Products, Cambridge, Mass., USA).
Pharmaceutical compositions were administered by instillation in the eyes of rats or administered as a mist using the nebulization device described above at a rate of 10 μl minute^−1. Subsequent to administration and a waiting time, the rats were sacrificed.
Subsequent to sacrifice, serum, cerebrospinal fluid (CSF, 50-100 μl), retina, optic nerve, sclera, and aqueous humor (AH) of an animal were harvested. The retina, optic nerve, and sclera of each animal was individually homogenized in 120 ul assay buffer on ice and centrifuged. The serum, CSF, AH and the homogenized retina, optic nerve and sclera were assayed for the presence of leptin using ELISA.
Data below is expressed as pg ml^−1 for serum, CSF and AH and as pg mg^−1 for tissue (determined using the Lowry method). […]

beta-adrenoceptor = details: cited from earlier work
[2] = tested on: human corneal epithelial cells; details: reported in Burgalassi et al. Tox. Lett. 2001; cited from earlier work
[3] = reported in Saettone et al. Int. J. Pharma. 1996

BL-9
irritation to the eye (eye; [3]): strongly irritating to the eye

leptin
leptin concentration in optic nerve and sclera relative to retina [1]: markedly higher than in the retina

C[C@@H]1CC[C@@]2(OC1)O[C@H]1[C@@H](O)[C@H]3[C@@H]4CC[C@H]5C[C@@H](O[C@@H]6O[C@H](CO)[C@H](O[C@@H]7O[C@H](CO)[C@@H](O)[C@H](O[C@@H]8OC[C@@H](O)[C@H](O)[C@H]8O)[C@H]7O[C@@H]7O[C@H](CO)[C@H](O)[C@H](O[C@@H]8O[C@H](CO)[C@@H](O)[C@H](O)[C@H]8O)[C@H]7O)[C@H](O)[C@H]6O)[C@H](O)C[C@]5(C)[C@H]4CC[C@]3(C)[C@H]1[C@@H]2C [digitonin]
irritation to the eye (eye; [3]): strongly irritating to the eye

CC(C)(C)NCC(O)COc1cccc2c1CCCC2=O.Cl (single isomer, unassigned; (-)) [Levobunolol, (−)-5-[3-(tert-Butylamino)-2-hydroxypropoxy]-3,4-dihydro-1(2H)-naphthalenone hydrochloride]
potency in beta-blocking activity relative to its dextro isomer (beta-adrenoceptor): greater than 60 times

CCCCCCCCCCCCCCCC[n+]1ccccc1 [cetylpyridinium chloride]
toxicity to human corneal epithelial cells relative to Brij-78 and EDTA [2]: less toxic to human corneal epithelial cells than Brij-78 but more toxic than EDTA

CC(=O)O[C@H]1C[C@@]2(C)[C@@H](C[C@@H](O)[C@H]3[C@@]4(C)CC[C@@H](O)[C@@H](C)[C@@H]4CC[C@@]32C)/C1=C(\CCC=C(C)C)C(=O)O [sodium fusidate]
irritation to the eye (eye; reported in Furrer et al. AAPS PharmSci 2002): strongly irritating to the eye

benzalkonium chloride
irritation to the eye (eye; [3]): strongly irritating to the eye
toxicity to human corneal epithelial cells relative to Brij-78 and EDTA [2]: less toxic to human corneal epithelial cells than Brij-78 but more toxic than EDTA

Brij-99
irritation to the eye (eye; reported in Morgan, J. Ocular Pharm. Ther. 1995): strongly irritation to the eye
